Source: the supplement of paper PMC10307832

Experiments:
Experiment in all cases: relative viability (nuclei count vs DMSO), 5 days (fraction); higher = more cells survive
AZD5582 + Foretinib = compound: C[C@@H](C(=O)N[C@@H](C1CCCCC1)C(=O)N2CCC[C@H]2C(=O)N[C@@H]3[C@@H](CC4=CC=CC=C34)OCC#CC#CCO[C@@H]5CC6=CC=CC=C6[C@@H]5NC(=O)[C@@H]7CCCN7C(=O)[C@H](C8CCCCC8)NC(=O)[C@H](C)NC)NC [AZD5582] + COc1cc2c(Oc3ccc(NC(=O)C4(C(=O)Nc5ccc(F)cc5)CC4)cc3F)ccnc2cc1OCCCN1CCOCC1 [Foretinib] (partner 0.25 µM)
Summary of the method: (§1)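 Lung cancer cell lines in 1536-well plates were dosed by pin tool the day after seeding, either with one drug alone or with a fixed anchor-drug dose plus five library-drug doses (not always all listed) in √10 steps. After 5 days, cells were fixed and their nuclei stained in one step (final 0.05% Triton X-100, 1% formaldehyde, 1 ug/ml Hoechst), then counted on 4× images. Relative viability is the nuclei count in treated wells divided by that in vehicle wells. Values are medians of duplicate plates.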

AZD5582 + Crizotinib = compound: C[C@@H](C(=O)N[C@@H](C1CCCCC1)C(=O)N2CCC[C@H]2C(=O)N[C@@H]3[C@@H](CC4=CC=CC=C34)OCC#CC#CCO[C@@H]5CC6=CC=CC=C6[C@@H]5NC(=O)[C@@H]7CCCN7C(=O)[C@H](C8CCCCC8)NC(=O)[C@H](C)NC)NC [AZD5582] + C[C@@H](Oc1cc(-c2cnn(C3CCNCC3)c2)cnc1N)c1c(Cl)ccc(F)c1Cl [Crizotinib] (partner 1 µM)
Summary of the method: as §1

[1] = compound: Cn1nnc2c(C(N)=O)ncn2c1=O [Temozolomide] + CC(=O)Nc1cccc(-n2c(=O)n(C3CC3)c(=O)c3c(Nc4ccc(I)cc4F)n(C)c(=O)c(C)c32)c1 [Trametinib] (partner 0.02 µM)
Summary of the method: as §1

[2] = compound: Cn1nnc2c(C(N)=O)ncn2c1=O [Temozolomide] + CS(=O)(=O)N1CCN(Cc2cc3nc(-c4cccc5[nH]ncc45)nc(N4CCOCC4)c3s2)CC1 [Pictilisib] (partner 1 µM)
Summary of the method: as §1

## PC-3 [JPC-3]
AZD5582 + Foretinib; first compound 0.001581 µM
  relative viability: 0.866
AZD5582 + Foretinib; first compound 0.005 µM
  relative viability: 0.809
AZD5582 + Foretinib; first compound 0.01581 µM
  relative viability: 0.96
AZD5582 + Foretinib; first compound 0.05 µM
  relative viability: 0.488
AZD5582 + Crizotinib; first compound 0.001581 µM
  relative viability: 0.862
AZD5582 + Crizotinib; first compound 0.005 µM
  relative viability: 0.882
AZD5582 + Crizotinib; first compound 0.01581 µM
  relative viability: 0.97
AZD5582 + Crizotinib; first compound 0.05 µM
  relative viability: 0.314
[1]; first compound 0.2 µM
  relative viability: 0.547
[1]; first compound 0.6325 µM
  relative viability: 0.769
[1]; first compound 2 µM
  relative viability: 0.821
[1]; first compound 6.325 µM
  relative viability: 0.724
[1]; first compound 20 µM
  relative viability: 0.433
[2]; first compound 0.2 µM
  relative viability: 0.71
[2]; first compound 0.6325 µM
  relative viability: 0.775
[2]; first compound 2 µM
  relative viability: 0.798
[2]; first compound 6.325 µM
  relative viability: 0.774
[2]; first compound 20 µM
  relative viability: 0.296

## NCI-H23
AZD5582 + Foretinib; first compound 0.001581 µM
  relative viability: 0.762
AZD5582 + Foretinib; first compound 0.005 µM
  relative viability: 0.872
AZD5582 + Foretinib; first compound 0.01581 µM
  relative viability: 0.787
AZD5582 + Foretinib; first compound 0.05 µM
  relative viability: 0.952
AZD5582 + Crizotinib; first compound 0.001581 µM
  relative viability: 0.328
AZD5582 + Crizotinib; first compound 0.005 µM
  relative viability: 0.316
AZD5582 + Crizotinib; first compound 0.01581 µM
  relative viability: 0.498
AZD5582 + Crizotinib; first compound 0.05 µM
  relative viability: 0.299
[1]; first compound 0.2 µM
  relative viability: 0.353
[1]; first compound 0.6325 µM
  relative viability: 0.348
[1]; first compound 2 µM
  relative viability: 0.427
[1]; first compound 6.325 µM
  relative viability: 0.381
[1]; first compound 20 µM
  relative viability: 0.358
[2]; first compound 0.2 µM
  relative viability: 0.563
[2]; first compound 0.6325 µM
  relative viability: 0.508
[2]; first compound 2 µM
  relative viability: 0.517
[2]; first compound 6.325 µM
  relative viability: 0.401
[2]; first compound 20 µM
  relative viability: 0.454

## NCI-H596
AZD5582 + Foretinib; first compound 0.01581 µM
  relative viability: 1.19
AZD5582 + Foretinib; first compound 0.05 µM
  relative viability: 0.279
AZD5582 + Crizotinib; first compound 0.001581 µM
  relative viability: 0.902
AZD5582 + Crizotinib; first compound 0.005 µM
  relative viability: 0.279
AZD5582 + Crizotinib; first compound 0.01581 µM
  relative viability: 1.03
AZD5582 + Crizotinib; first compound 0.05 µM
  relative viability: 0.1
[1]; first compound 0.2 µM
  relative viability: 0.916
[1]; first compound 0.6325 µM
  relative viability: 0.714
[1]; first compound 2 µM
  relative viability: 0.943
[1]; first compound 6.325 µM
  relative viability: 0.789
[1]; first compound 20 µM
  relative viability: 0.877
[2]; first compound 0.2 µM
  relative viability: 0.421
[2]; first compound 0.6325 µM
  relative viability: 0.404
[2]; first compound 2 µM
  relative viability: 0.411
[2]; first compound 6.325 µM
  relative viability: 0.385
[2]; first compound 20 µM
  relative viability: 0.384

## LU99A
AZD5582 + Foretinib; first compound 0.001581 µM
  relative viability: 0.871
AZD5582 + Foretinib; first compound 0.005 µM
  relative viability: 0.948
AZD5582 + Foretinib; first compound 0.01581 µM
  relative viability: 0.886
AZD5582 + Foretinib; first compound 0.05 µM
  relative viability: 1.03
AZD5582 + Crizotinib; first compound 0.001581 µM
  relative viability: 0.548
AZD5582 + Crizotinib; first compound 0.005 µM
  relative viability: 0.685
AZD5582 + Crizotinib; first compound 0.01581 µM
  relative viability: 0.501
AZD5582 + Crizotinib; first compound 0.05 µM
  relative viability: 0.672
[1]; first compound 0.2 µM
  relative viability: 0.555
[1]; first compound 0.6325 µM
  relative viability: 0.522
[1]; first compound 2 µM
  relative viability: 0.6
[1]; first compound 6.325 µM
  relative viability: 0.555
[1]; first compound 20 µM
  relative viability: 0.61
[2]; first compound 0.2 µM
  relative viability: 0.325
[2]; first compound 0.6325 µM
  relative viability: 0.351
[2]; first compound 2 µM
  relative viability: 0.324
[2]; first compound 6.325 µM
  relative viability: 0.343
[2]; first compound 20 µM
  relative viability: 0.335

## LCLC-97TM1
AZD5582 + Foretinib; first compound 0.001581 µM
  relative viability: 0.913
AZD5582 + Foretinib; first compound 0.005 µM
  relative viability: 0.94
AZD5582 + Foretinib; first compound 0.01581 µM
  relative viability: 0.908
AZD5582 + Foretinib; first compound 0.05 µM
  relative viability: 0.958
AZD5582 + Crizotinib; first compound 0.005 µM
  relative viability: 0.269
AZD5582 + Crizotinib; first compound 0.01581 µM
  relative viability: 0.338
AZD5582 + Crizotinib; first compound 0.05 µM
  relative viability: 0.257
[1]; first compound 0.2 µM
  relative viability: 0.222
[1]; first compound 0.6325 µM
  relative viability: 0.161
[1]; first compound 2 µM
  relative viability: 0.234
[1]; first compound 6.325 µM
  relative viability: 0.199
[1]; first compound 20 µM
  relative viability: 0.173
[2]; first compound 0.2 µM
  relative viability: 0.197
[2]; first compound 0.6325 µM
  relative viability: 0.224
[2]; first compound 2 µM
  relative viability: 0.163
[2]; first compound 6.325 µM
  relative viability: 0.178
[2]; first compound 20 µM
  relative viability: 0.17

## LCLC-103H
AZD5582 + Foretinib; first compound 0.001581 µM
  relative viability: 0.699
AZD5582 + Foretinib; first compound 0.005 µM
  relative viability: 0.725
AZD5582 + Foretinib; first compound 0.01581 µM
  relative viability: 0.681
AZD5582 + Foretinib; first compound 0.05 µM
  relative viability: 0.581
AZD5582 + Crizotinib; first compound 0.001581 µM
  relative viability: 1.1
AZD5582 + Crizotinib; first compound 0.005 µM
  relative viability: 1.08
AZD5582 + Crizotinib; first compound 0.01581 µM
  relative viability: 1.02
AZD5582 + Crizotinib; first compound 0.05 µM
  relative viability: 0.777
[1]; first compound 0.2 µM
  relative viability: 0.725
[1]; first compound 0.6325 µM
  relative viability: 0.624
[1]; first compound 2 µM
  relative viability: 0.686
[1]; first compound 6.325 µM
  relative viability: 0.678
[1]; first compound 20 µM
  relative viability: 0.617
[2]; first compound 0.2 µM
  relative viability: 0.614
[2]; first compound 0.6325 µM
  relative viability: 0.523
[2]; first compound 2 µM
  relative viability: 0.816
[2]; first compound 6.325 µM
  relative viability: 0.509
[2]; first compound 20 µM
  relative viability: 0.62

## HCC-78
AZD5582 + Foretinib; first compound 0.001581 µM
  relative viability: 0.537
AZD5582 + Foretinib; first compound 0.005 µM
  relative viability: 0.624
AZD5582 + Foretinib; first compound 0.01581 µM
  relative viability: 0.548
AZD5582 + Foretinib; first compound 0.05 µM
  relative viability: 0.62
AZD5582 + Crizotinib; first compound 0.001581 µM
  relative viability: 0.294
AZD5582 + Crizotinib; first compound 0.005 µM
  relative viability: 0.353
AZD5582 + Crizotinib; first compound 0.01581 µM
  relative viability: 0.312
AZD5582 + Crizotinib; first compound 0.05 µM
  relative viability: 0.426
[1]; first compound 0.2 µM
  relative viability: 0.602
[1]; first compound 0.6325 µM
  relative viability: 0.793
[1]; first compound 2 µM
  relative viability: 0.646
[1]; first compound 20 µM
  relative viability: 0.736
[2]; first compound 0.2 µM
  relative viability: 0.26
[2]; first compound 0.6325 µM
  relative viability: 0.221
[2]; first compound 2 µM
  relative viability: 0.211
[2]; first compound 6.325 µM
  relative viability: 0.21
[2]; first compound 20 µM
  relative viability: 0.193

## NCI-H358
AZD5582 + Foretinib; first compound 0.001581 µM
  relative viability: 0.684
AZD5582 + Foretinib; first compound 0.005 µM
  relative viability: 0.938
AZD5582 + Foretinib; first compound 0.01581 µM
  relative viability: 0.779
AZD5582 + Foretinib; first compound 0.05 µM
  relative viability: 0.626
AZD5582 + Crizotinib; first compound 0.001581 µM
  relative viability: 0.505
AZD5582 + Crizotinib; first compound 0.005 µM
  relative viability: 0.676
AZD5582 + Crizotinib; first compound 0.01581 µM
  relative viability: 0.704
AZD5582 + Crizotinib; first compound 0.05 µM
  relative viability: 0.455
[1]; first compound 0.2 µM
  relative viability: 0.108
[1]; first compound 0.6325 µM
  relative viability: 0.143
[1]; first compound 2 µM
  relative viability: 0.131
[1]; first compound 6.325 µM
  relative viability: 0.139
[1]; first compound 20 µM
  relative viability: 0.145
[2]; first compound 0.2 µM
  relative viability: 0.342
[2]; first compound 0.6325 µM
  relative viability: 0.392
[2]; first compound 2 µM
  relative viability: 0.348
[2]; first compound 6.325 µM
  relative viability: 0.305
[2]; first compound 20 µM
  relative viability: 0.283
